Assay results: patent US20220125839A1, “COMBINATION OF T-CELL THERAPY AND TARGETED THERAPY FOR TREATING THERAPY-RESISTANT MELANOMA WITH MUTATIONS IN THE BRAF GENE” (H. LEE MOFFITT CANCER CENTER AND RESEARCH INSTITUTE, INC., priority 2019, published 2022)

Legend:
[1] = system: WM35-BR cells; assay: CTL assay (51Cr release), WM35-BR targets with HLA-matched TIL; format: cell-based, human; settings: overnight treatment
Experimental: For Chromium (^51Cr) release assays, 1×10^6 human melanoma cells were incubated with 100 μCi ^51Cr (Perkin-Elmer; Cat. no. NEZ030S001MC; 1 mCi/mL) at 37° C. for 60 minutes, washed 3 times with sterile PBS and plated into 96-well round-bottom plates at a cell density of 1×10^4 tumor target cells/well. Target cells were incubated with human CD8+ TILs in triplicates at the indicated effector/target (E) ratios in 200 μl culture medium at 37° C. in a humidified CO2 incubator. After incubation, plates were centrifuged, 50 μl supernatant was harvested from each well and ^51Cr release was measured using a gamma counter. The percent specific lysis was calculated as follows: 100×[(experimental release−spontaneous release)/(maximum release−spontaneous release)]. As controls, T cells isolated from blood of healthy donor were used.

[2] = system: M6PR; assay: Cell surface M6PR expression by flow cytometry in PLX4720-resistant WM983B-BR cells; format: cell-based, human
Experimental: WM35 human melanoma and HLA-matched human tumor infiltrating lymphocytes (TIL) were generated at H. Lee Moffitt Cancer Center and Research Institute, Tampa, Fla., USA). Human melanoma cells lines WM983B and WM983B-BR were maintained in Dulbecco's Modified Eagles medium (DMEM) (Gibco), other human melanoma cell lines were maintained in RPMI medium supplemented with 10% fetal bovine serum (FBS, Sigma-Aldrich, St. Louis, Mo.) and 1% Pen/Strep (Corning; Cat. no. 30-002-Cl) at 37° C., 5% CO2. PLX4720-resistant cells were kept in cell culture media supplemented with 1 μM PLX4720 to keep these cells resistant against the drug. 350 μg/mL Hygromycin B (Invitrogen; Cat. no. 10687010) was kept in the culture media of WM983B-BR-pAHygCMV2, WM983B-BR-M6PR/IGF2R, WM35-pAHygCMV2, WM35-M6PR/IGF2R cells after transfection. Tumor cell lines were tested for mycoplasma contamination by using Universal Mycoplasma detection kit (ATCC) regularly. Human melanoma cells were treated with 1-10 μM PLX4720 (Selleckchem; Cat. no. S1152), 25-100 nmol/mL (nM) Trametinib (Selleckchem; Cat. no. S2673). Hypoxia (0.5% 02) was maintained using hypoxic chamber (BioSpherix).
M6PR expression levels were detected by flow cytometry. […] Cells were fixed using 1% paraformaldehyde for 20 minutes at 4° C. before running them on LSR14. Data was analyzed by FlowJo software (Tree Star).
(§1) To maintain consistency with the results obtained on sensitive cell lines and to better assess the effect of BRAFi on the sensitivity of tumor cells to CTLs, we generated an additional BRAFi resistant cell line WM35-BR by exposing WM35 cells to increased concentrations of PLX4720. Resistant cell lines (WM983B-BR and WM35-BR) were treated with 1 μM or 10 μM PLX4720 for different times, and cell surface M6PR levels were determined by flow cytometry.

[3] = system: M6PR; assay: M6PR staining in patient derived xenografts (PDX); format: in vivo, mice; settings: PDX from four patients (4237, 3929, 4070, 4298); treated for 3 weeks
Experimental: FIGS. 11A, 11B, and 11 C show M6PR expression in patients treated with vemurafenib plus ACT with TIL. […] Mice with PDX were left untreated for 4 weeks (untreated), or treated for 3 weeks with corresponding single agent BRAFi (PLX-PLX4720) or combination with MEKi (CPLX-PLX4720 and PD0325901). Tissues were stained for M6PR and intensity of staining was assessed in 8 fields. Typical example of staining (scale bar=25 μm) and statistical analysis are shown. Intensity was normalized to untreated samples. Mean and SD for 8 fields are shown. P values were calculated in unpaired Student's t-test. […] H-score results are shown. P value is shown in paired twotailed Student's t test.
To test the effect of therapy on M6PR expression in clinical samples, we established patient derived xenografts (PDX) from four patients who were either treatment naïve (4237, 3929), or progressed on BRAFi (4070) or combination of BRAFi and MEKi (4298). Mice with PDX were left untreated or treated for 3 weeks with single agent BRAFi (PLX-PLX4720) or combination with MEKi (CPLXPLX4720 and PD0325901).

[4] = system: WM35-BR cells; assay: Granzyme B (GrzB) uptake by WM35-BR cells; format: cell-based, human; settings: 10 μM overnight, then inactive GrzB one hour
Experimental: (§2) Cells were then stained with Aqua dead cell staining kit (Thermo Fischer Scientific) for 15 min at 4° C. fixed in fixation buffer (BD Cytofix/Cytoperm; Cat. no. 51-2090). Granzyme B antibody (Cat. no. 561142) or its isotype control (BD Bioscience; Cat. no. 555749) were used. Stained cells were run on LSR14. Data was analyzed by FlowJo software (Tree Star).

[5] = system: M6PR; assay: Cell surface M6PR expression by flow cytometry in WM983B melanoma cells; format: cell-based, human
Experimental: Human studies were approved by The Wistar Institute IRB. Peripheral blood was collected from healthy volunteers after obtaining informed consent. Animal experiments were approved by The Wistar Institute Animal Care and Use Committee. The mice were kept under pathogen free conditions. Experiments were carried out using female NSG mice or female and male nonobese diabetic/severe combined immunodeficient (NOD/SCID) mice, obtained from the mouse facility of the Wistar Institute and Charles River Laboratories, respectively. WM35 human melanoma and HLA-matched human tumor infiltrating lymphocytes (TIL) were generated at H. Lee Moffitt Cancer Center and Research Institute, Tampa, Fla., USA). […] Louis, Mo.) and 1% Pen/Strep (Corning; Cat. no. 30-002-Cl) at 37° C., 5% CO2. PLX4720-resistant cells were kept in cell culture media supplemented with 1 μM PLX4720 to keep these cells resistant against the drug. 350 μg/mL Hygromycin B (Invitrogen; […] Tumor cell lines were tested for mycoplasma contamination by using Universal Mycoplasma detection kit (ATCC) regularly. […] Cat. no. […] Cat. no. S2673). Hypoxia (0.5% 02) was maintained using hypoxic chamber (BioSpherix). […] Cells were incubated with Aqua dead cell staining kit (Thermo Fischer Scientific; Cat. no. […] Cat. no. 565105; clone no. MEM-238) or its isotype (BD Biosciences; Cat. no. 557732; clone no. MOPC-21) at 4° C. for 20 minutes. Cells were fixed using 1% paraformaldehyde for 20 minutes at 4° C. before running them on LSR14. Data was analyzed by FlowJo software (Tree Star).

[6] = system: WM35 cells; assay: Granzyme B (GrzB) uptake by WM35 cells; format: cell-based, human; settings: overnight PLX4720, then inactive GrzB for an hour
Experimental: as §2

[7] = system: M6PR; assay: Cell surface M6PR expression by flow cytometry in PLX4720-resistant WM35-BR cells; format: cell-based, human; settings: 1 μM or 10 μM PLX4720
Experimental: WM35 human melanoma and HLA-matched human tumor infiltrating lymphocytes (TIL) were generated at H. Lee Moffitt Cancer Center and Research Institute, Tampa, Fla., USA). Human melanoma cells lines WM983B and WM983B-BR were maintained in Dulbecco's Modified Eagles medium (DMEM) (Gibco), other human melanoma cell lines were maintained in RPMI medium supplemented with 10% fetal bovine serum (FBS, Sigma-Aldrich, St. Louis, Mo.) and 1% Pen/Strep (Corning; Cat. no. 30-002-Cl) at 37° C., 5% CO2. PLX4720-resistant cells were kept in cell culture media supplemented with 1 μM PLX4720 to keep these cells resistant against the drug. 350 μg/mL Hygromycin B (Invitrogen; Cat. no. 10687010) was kept in the culture media of WM983B-BR-pAHygCMV2, WM983B-BR-M6PR/IGF2R, WM35-pAHygCMV2, WM35-M6PR/IGF2R cells after transfection. […]
M6PR expression levels were detected by flow cytometry. […] Data was analyzed by FlowJo software (Tree Star).
as §1

[8] = system: WM35-BR cells; assay: Tumor growth of WM35-BR xenografts in NOD/SCID mice; format: in vivo; settings: PLX4720 50 mg/kg for 10 days, TIL i.v. twice at a 4 day interval
Experimental: In order to establish xenograft models, cultured WM35, WM35-BR, WM983B-BR-pAHygCMV2 and WM983B-BR-M6PR/IGF2R cells were harvested, suspended in sterile PBS, mixed in 2:1 ratio with Matrigel and injected subcutaneously into the left flank of mice (1-3×10^6 cells per mouse). PLX4720 was administered daily at dose 50 mg/kg for 10 days via oral gavage. As a control, mice treated with vehicle alone (2% DMSO, 50% PEG 300, 5% Tween 80) were used. Treatments were started when tumors were 0.5-0.8 cm in diameter.
We next tested whether PLX-induced M6PR up-regulation on the cell surface of resistant cells sensitized them to HLA-matched TIL. […] We asked whether BRAFi could sensitize resistant tumors to TILs in vivo. WM35-BR cells were injected subcutaneously to the flanks of immune deficient NOD/SCID mice and when tumors became palpable, mice were split to 4 groups. Mice treated with vehicle alone, mice treated with 50 mg/kg PLX4720 for 10 days, mice treated with CD8+ T-cell enriched TIL i.v. twice at a 4 day interval and mice treated with combination of PLX4720 and TILs.

[9] = system: WM35 cells; assay: CTL assay (51Cr release), WM35 targets with HLA-A2+ TIL; format: cell-based, human; settings: WM35 pretreated with PLX4720 O/N vs DMSO
Experimental: (OKT3) (eBioscience; Cat. no. 16-0037-81) in the presence of 29×10^6 irradiated (5000 rad) allogenic PBMC as feeder cells. TIL were cultured in 9.6 mL of REP Media I (comprised of RPMI 1640, 10% heat-inactivated human AB serum (Sigma-Aldrich; Cat. no. H4522), 55 μM 2-mercaptoethanol (Gibco; Cat. no. 21985-023), 10 mM HEPES Buffer (Corning; Cat. no. 30-060-C1)) and 10.7 mL AIM V (Gibco; Cat. no. 0870112-DK) supplemented with 6000 I.U./mL rhIL-2. On day 4.15 mL media was replaced with fresh media (50% AIM V and 50% REP I) containing 3000 I.U./mL rhIL-2. On day 7.15 mL media was removed and 15 mL of AIM V containing 3000 I.U./mL rhIL-2 was added to the culture. […] After 14 days, TIL were collected, counted and CD8+ TIL were isolated using EasySep™ Human CD8+ T Cell Enrichment Kit (Stem Cell Technologies; Cat. no. 19053) for further experiments.
For Chromium (^51Cr) release assays, 1×10^6 human melanoma cells were incubated with 100 μCi ^51Cr (Perkin-Elmer; Cat. no. NEZ030S001MC; 1 mCi/mL) at 37° C. for 60 minutes, washed 3 times with sterile PBS and plated into 96-well round-bottom plates at a cell density of 1×10^4 tumor target cells/well. […] After incubation, plates were centrifuged, 50 μl supernatant was harvested from each well and ^51Cr release was measured using a gamma counter. […]

[10] = system: BRAFV600E mouse melanoma transplants; settings: in vivo; cited from earlier work
[11] = system: M6PR; assay: IHC staining of M6PR in WM35-BR tumors in NOD/SCID mice; format: in vivo
Experimental: Tumor tissues were harvested, fixed overnight with 4% paraformaldehyde (Electron Microscopy Science; Cat. no. 15710) at 4° C., embedded in paraffin blocks and 4-5 μm thick sections of the tissue were prepared and stained with polyclonal goat M6PR/IGF2R primary antibody (R&D Systems; Cat. no. AF2447; 5 μg/mL per samples) O/N at 4° C. Biotinylated 2nd antibody in 1:200 dilution was used for 30 min at RT followed by application of ABC solution (avidin dehydroxygenase and biotinylated horseradish peroxidase) for 30 min at RT. DAB 0.05% solution was applied for 3-4 min at RT. Hematoxylin was used for counterstaining the nucleus. Images were analyzed using Nis-Elements Ar (Advanced Research) Nikon 80i Upright Microscope with 40×N.A. objective. Each slide was scanned, images were manually captured at separate X, Y locations and a multipoint ND document was created point by point. A threshold value was defined for each image (for brown M6PR staining) using the single point selection tool. […]
WM35-BR tumor cells were injected subcutaneously to the flank of NOD/SCID mice and once the average tumor area reached around 40-50 mm2 in size, mice were treated with vehicle or 50 mg/kg PLX4720 by oral gavage for 5 days. After 5 days of PLX4720 treatment, tumors were harvested at different time points and M6PR expression in tumor tissues was detected by IHC staining.

CCCS(=O)(=O)Nc1ccc(F)c(C(=O)c2c[nH]c3ncc(Cl)cc23)c1F [PLX4720]
sensitivity of tumor cells to TIL in cytotoxicity assay [1]: increased sensitivity of tumor cells to TIL | M6PR expression under hypoxia ([2]; BRAF resistant cells (WM983B-BR), hypoxia): increased M6PR expression | M6PR on the cell surface ([2]; WM983B-BR, 1 μM or 10 μM PLX4720): further substantial up-regulation of MP6R on the cell surface | M6PR levels after 24 hours of treatment ([2]; WM983B-BR, 24 hours): did not decrease to pre-treatment levels | M6PR in tumors (PDX) [3]: marked up-regulation of M6PR in tumors | intracellular GrzB levels [4]: significantly higher amount of GrzB than DMSO treated cells | M6PR on the cell surface ([5]; 1 μM, 2.5, 5 or 10 μM PLX4720, within 6 hours): substantial dose-dependent up-regulation of M6PR on the cell surface | expression of M6PR during hypoxia ([5]; 0.5% O2, within 3 hours after starting treatment, 10 μM): significant (p<0.0001) increase in the expression of M6PR | M6PR up-regulation, hypoxia compared with normoxia ([5]; 0.5% O2 vs normoxia): more pronounced under hypoxic conditions than in normoxia | M6PR expression twenty-four hours after starting treatment ([5]; 24 hours): no up-regulation of M6PR expression | M6PR expression on the cell surface ([5]; O/N, different concentrations of PLX4720): substantial up-regulation of M6PR | time to maximum M6PR up-regulation ([5]; hypoxic conditions): ≤ 12 h | GrzB uptake by tumor cells [6]: significant up-regulation of GrzB uptake | M6PR on the cell surface [7]: further substantial up-regulation of MP6R on the cell surface | tumor growth [8]: did not affect tumor growth | sensitivity to lysis by effector cells (TIL) [9]: more sensitive to the lysis by effector cells | CD8+T/FoxP3+CD4+ T cell ratio and NK cells [10]: robust increase in the CD8+T/FoxP3+CD4+ T cell ratio and in NK cells | tumor CCL2 expression [10]: decreased tumor CCL2 expression | tumor immunogenicity [10]: did not directly increase tumor immunogenicity | M6PR in tumor tissues by IHC ([11]; 50 mg/kg oral gavage for 5 days): marked up-regulation of M6PR in tumor tissues, which was lower than that observed in sensitive cell lines | M6PR expression after treatment was stopped ([11]; compared with sensitive lines): decreased more rapidly after treatment was stopped
